The test system of one test is Lichtheimia corymbifera. Briefly: Checkerboard AmB MIC with surfactant in solution, inhibitory Emax model. Type of test: cell-based. How it is done: (§1) Twelve clinical isolates of Mucorales identified by ARNr sequencing were used: Rhizopus arrhizus (5), Rhizopus microsporus (1), Lichtheimia corymbifera (3), Lichtheimia ramosa (1), Mucor circinelloides (1), Rhizomucor pusillus (1). Isolates were subcultured from frozen stocks (−80° C.) on 75 cm^3 flasks containing 15 mL of Sabouraud dextrose agar (Sigma-Aldrich, St. Quentin Fallavier, France) during 3 days at 37° C. Spores were collected by flooding the flask with 10 ml of sterile water. The suspensions were filtered on nylon filter (Millipore, Carrigtwohill, Ireland) with pore size of 11 μm to remove hyphal elements. The concentration of the spore suspensions was then adjusted in sterile water to obtain inocula of 2×10^5 spores/mL.
(§2) AmB powder (Sigma-Aldrich) was dissolved in dimethyl sulfoxide to get a stock solution at 8192 mg/L stored at −80° C. for six months. On the day of use, AmB and freshly made surfactant solutions (in RPMI or PBS) were diluted in the same medium (RPMI or PBS) to obtain desired concentrations. Surfactants used (polyethylene glycol (15)-hydroxystearate (also named Solutol® HS15 or Kolliphor® HS 15, or Macrogol 15 Hydroxystearate); polyoxyethylene (10) stearyl ether (Brij® S10); polyoxyethylene (20) stearyl ether (Brij® S20); polyoxyethylene (20) oleyl ether (Brij® 020); and polyoxyethylene (10) cetyl ether (Brij® C10)), which have their chemical structure presented in FIG. 7, were purchased from Sigma-Aldrich.
(§3) AmB minimum inhibitory concentrations (MIC) of each strain of Mucorales was measured in RPMI the presence of different concentrations of surfactant as described by the EUCAST broth microdilution antifungal susceptibility test methodology with modification for the checkerboard procedure. Checkerboards were performed by adding 100 μL of two-fold dilutions of AmB (0.008 to 4 mg/L) and surfactant solutions (0.04 to 2752 mg/L) in 96 well plates. One hundred microliters of a spore suspension at a concentration of 105 spores/mL were added to the wells, and the plates were incubated for 24 h at 37° C. […] Three experiments were performed for each strain.
(§4) An inhibitory Emax model (Equation 1) developed by Chauzy et al. (Chauzy, A.; Buyck, J.; de Jonge, B. L. M.; Marchand, S.; Grégoire, N.; Couet, W. Pharmacodynamic Modelling of β-Lactam/β-Lactamase Inhibitor Checkerboard Data: Illustration with Aztreonam-Avibactam. Clin. Microbiol. Infect. 2019, 25, 515.e1-515.e4, doi: 10.1016/j.cmi.2018.11.025) to evaluate the enhancing effect of non-antibiotics molecules on the efficacy of antibiotic against bacteria was used here to describe the average decrease in AmB MIC values (MICsurf) against various Mucorales strains in relation to surfactant concentrations (Csurf).
(§5) In equation 1, MIC0 refers to the AmB MIC measured without surfactants and MIC∞ is the lowest AmB MIC measured in the presence of surfactant. The maximal ratio in AmB MIC decrease defined as maximal efficacy (Emax) was calculated as the ratio of MIC0/MIC∞. EC50 is the concentration of surfactant producing 50% of the Emax and characterizes the potency of the surfactants. These parameters were evaluated using WinNonlin software (version 6.2, Certara, NJ, USA) as described by Chauzy et al.

In a further test the test system is Lichtheimia ramosa. Described as above. The following applies: L. ramosa. Type of test: cell-based. How it is done:
as §1, §2, §3, §4, §5

Another test concerns Mucor circinelloides. The description is as above. It counts as cell-based. The conditions noted are these: M. circinelloides. The procedure: as §1, §2, §3, §4, §5
The next test concerns Rhizomucor pusillus. The test is described as above. The conditions noted are these: R. pusillus. It counts as cell-based. The procedure:
as §1, §2, §3, §4, §5

The next test has as its system Rhizopus arrhizus. The description is as above. It counts as cell-based. How it is done:
as §1, §2, §3, §4, §5

A further test relates to Rhizopus microsporus. Described as above. Type of test: cell-based. The conditions noted are these: R. microsporus. The procedure: as §1, §2, §3, §4, §5
The test system of test [1] is Twelve clinical isolates of Mucorales. Nature of the test: Checkerboard AmB MIC with surfactant in solution, statements over all isolates. It counts as cell-based. How it is done:
as §1, with “spores/mL. […]” for “spores/mL.”
AmB minimum inhibitory concentrations (MIC) of each strain of Mucorales was measured in RPMI the presence of different concentrations of surfactant as described by the EUCAST broth microdilution antifungal susceptibility test methodology with modification for the checkerboard procedure. […]
In equation 1, MIC0 refers to the AmB MIC measured without surfactants and MIC∞ is the lowest AmB MIC measured in the presence of surfactant. The maximal ratio in AmB MIC decrease defined as maximal efficacy (Emax) was calculated as the ratio of MIC0/MIC∞. […] These parameters were evaluated using WinNonlin software (version 6.2, Certara, NJ, USA) as described by Chauzy et al.

The test system of a further test is L. corymbifera. Nature of the test: Checkerboard MICs of AmB, ISA and PEG15HS in solution. The conditions noted are these: RPMI, 24 h at 37° C. It counts as cell-based, Lichtheimia corymbifera. The procedure: as §3, with “RPMI in” for “RPMI”, “ISA or PEG15HS” for “surfactant”, “ISA (0.008 to 4 mg/L) or PEG15HS” for “surfactant solutions”
AmB MIC of each strain of Mucorales was measured in RPMI in the presence of different concentrations of ISA and a constant concentration of PEG15HS (100 times the concentration of AmB) as described by the EUCAST broth microdilution antifungal susceptibility test methodology with modification for the checkerboard procedure. Checkerboards were performed by adding 100 μL of two-fold dilutions of AmB (0.008 to 4 mg/L)+PEG15HS (0.8 to 400 mg/L) and ISA (0.008 to 4 mg/L) in 96 well plates. One hundred microliters of a spore suspension at a concentration of 105 spores/mL were added to the wells, and the plates were incubated for 24 h at 37° C. […] Three experiments were performed for each strain. […]

One compound from US20250221930A1, “A COMPOSITION COMPRISING LIPID NANOPARTICLES AND AN ANTIFUNGAL POLYENE” (INSTITUT NATIONAL DE LA SANTÉ ET DE LA RECHERCHE MÉDICALE, priority 2022, published 2025) can be followed below.

As to `C[C@@H]1[C@H](O)[C@@H](C)/C=C/C=C/C=C/C=C/C=C/C=C/C=C/[C@H](O[C@@H]2O[C@H](C)[C@@H](O)[C@H](N)[C@@H]2O)C[C@@H]2O[C@](O)(C[C@@H](O)C[C@@H](O)[C@H](O)CC[C@@H](O)C[C@@H](O)CC(=O)O[C@H]1C)C[C@H](O)[C@H]2C(=O)O` [AmB, amphotericin B], the “MIC0 (MIC of AmB in the absence of surfactant)” value in the test on Lichtheimia corymbifera (L. corymbifera 1) was found to be 0.36 µg/mL; in the test with Lichtheimia corymbifera (L. corymbifera 2) it was 0.06 µg/mL; in the test on Lichtheimia corymbifera (L. corymbifera 3), 0.25 µg/mL; in the test with Lichtheimia ramosa, 0.51 µg/mL; with Mucor circinelloides, 0.19 µg/mL; in the test with Rhizomucor pusillus it was 0.25 µg/mL. In addition, the “MIC0 (MIC of AmB in the absence of surfactant)” value came to 0.28 µg/mL in the test with Rhizopus arrhizus (R. arrhizus 1); 0.44 µg/mL in the test on Rhizopus arrhizus (R. arrhizus 2); 0.59 µg/mL with Rhizopus arrhizus (R. arrhizus 3); 0.61 µg/mL in the test on Rhizopus arrhizus (R. arrhizus 4); 0.35 µg/mL in the test on Rhizopus arrhizus (R. arrhizus 5); 0.68 µg/mL with Rhizopus microsporus. Further, the “MIC (agent alone)” value in test [1] is listed as “less than 1 mg/L”. Besides, in the test on L. corymbifera, the “MIC of AmB” value worked out at 1 µg/mL.
